Columns and labels:
Kasumi-1 = Kasumi-1 AML cell line proliferation assay (Cell-MTS assay); format: cell-based; conditions: Homo sapiens, 168 hours incubation
Excerpt: Colorimetric cellular assay to assess the ability of LSD-1 small molecule inhibitors to effect the proliferation of the established AML cancer cell line Kasumi-1.
This Cell-MTS assay is a 7-day plate based colorimetric assay which quantifies the amount of newly generated NADH in the presence and absence of test compound. These NADH levels are used as a proxy for the quantification of cancer cell proliferation.
The established cancer cell line Kasumi-1 with a verified p53 mutation were purchased from American Type Culture Collection (ATCC) and routinely passaged according to ATCC published protocols. For routine assay these cells were seeded at a density of 20,000 cells per 96-well. 24 hours after plating, cells received an 11 point dilution of test compound with final concentration ranges from 100 μM to 2.0 nM. Cells are incubated in the presence of compound for 168 hours at 37° C., 5% CO2. At the end of this compound incubation period, 80 μl of media is removed and 20 μL of CellTiter 96® AQueous Non-Radioactive Cell Proliferation Assay solution (Promega) is added. The cells are incubated until the OD490 is >0.6. IC50 values are calculated using the IDBS XLfit software package and include background subtracted OD490 values and normalization to DMSO controls.
Table 5 provides the Kasumi-1 cellular IC50 values of various substituted heterocyclic compounds disclosed herein.

THP-1 (AML) cells = assay: LSD1 CD11b cellular assay (flow cytometry); format: cell-based; conditions: Homo sapiens, THP-1, 96 h; CD11b expressing cells, 4 days incubation
Description: To analyze LSD1 inhibitor efficacy in cells, a CD11b flow cytometry assay was performed. LSD1 inhibition induces CD11b expression in THP-1 (AML) cells which can be measured by flow cytometry. […] LSD1 test compounds were serially diluted in DMSO. The dilutions were added to each well accordingly to a final concentration of 0.2% DMSO. The cells were incubated at 37 degrees Celsius in 5% CO2 for 4 days. 250 μL of each well was transferred to a well in a 96 well round bottom plate. The plate was centrifuged at 1200 rpm at 4 degrees Celsius in a Beckman Coulter Alegra 6KR centrifuge for 5 minutes. The media was removed leaving the cells at the bottom of the wells. The cells were washed in 100 μL cold HBSS (Hank's Balanced Salt Solution) plus 2% BSA (Bovine Serum Albumin) solution and centrifuged at 1200 rpm at 4 degrees Celsius for 5 minutes. The wash was removed. […] The cells were centrifuged and washed two times in 100 μL HBSS plus 2% BSA. After the final spin the cells were resuspended in 100 μL HBSS plus 2% BSA containing 1 ug/mL DAPI (4′,6-diamidino-2-phenylindole). The cells were then analyzed by flow cytometry in a BD FACSAria machine. Cells were analyzed for CD11b expression. The percent of CD11b expressing cells for each inhibitor concentration was used to determine an IC50 curve for each compound analyzed.

full-length human LSD1 = full-length human LSD1 (Homo sapiens (Human), UniProt O60341); assay: In vitro enzyme inhibition assay LSD-1 (TR-FRET); format: biochemical; conditions: H3K4me1-biotin peptide
Description: This assay determines the ability of a test compound to inhibit LSD1 demethylase activity.
The enzymatic assay of LSD1 activity is based on Time Resolved-Fluorescence Resonance Energy Transfer (TR-FRET) detection.
Plates were read by EnVision Multilabel Reader in TR-FRET mode (excitation at 320 nm, emission at 615 nm and 665 nm) after 1 hour incubation at room temperature.
The ability of the compounds disclosed herein to inhibit LSD1 activity was quantified and the respective IC50 value was determined.

Structure (SMILES)	IC50 (THP-1 (AML) cells) [µM]	IC50 (full-length human LSD1) [µM]	IC50 (Kasumi-1) [µM]
CCOc1ccc(-c2c(-c3ccc(C#N)c(F)c3)nc(NC[C@H]3CCNC3)c(=O)n2C)cc1 [Example 62, 4-{3-(4-ethoxy-phenyl)-4-methyl-5-oxo-6-[((3S)-pyrrolidin-3-ylmethyl)-amino]-4,5-dihydro-pyrazin-2-yl}-2-fluoro-benzonitrile]	< 0.1	< 0.1	–
N#Cc1ccc(-c2cn(CC3CC3)c(=O)c(N3CCC(N)CC3)n2)cc1F [Example 7, 4-[6-(4-amino-piperidin-1-yl)-4-cyclopropylmethyl-5-oxo-4,5-dihydro-pyrazin-2-yl]-2-fluoro-benzonitrile]	1 to 10	< 0.1	–
Cn1c(-c2ccc(C3CC3)cc2)c(-c2ccc(C#N)c(F)c2)nc(NC[C@H]2CCNC2)c1=O [Example 59, 4-{3-(4-cyclopropyl-phenyl)-4-methyl-5-oxo-6-[((3S)-pyrrolidin-3-ylmethyl)-amino]-4,5-dihydro-pyrazin-2-yl}-2-fluoro-benzonitrile]	< 0.1	< 0.1	–
Cc1ccc(-c2c(-c3ccc(C#N)cc3)nc(NC[C@@H]3CCNC3)c(=O)n2C)cc1 [Example 18, 4-[4-methyl-3-(4-methylphenyl)-5-oxo-6-{[(3R)-pyrrolidin-3-ylmethyl]amino}-4,5-dihydropyrazin-2-yl]benzonitrile]	< 0.1	< 0.1	–
CCc1ccc(-c2c(-c3ccc(C#N)nc3)cc(NC[C@H]3CCNC3)c(=O)n2C)cc1 [Example 71, (S)-5-(2-(4-ethylphenyl)-1-methyl-6-oxo-5-(pyrrolidin-3-ylmethylamino)-1,6-dihydropyridin-3-yl)picolinonitrile]	< 0.1	< 0.1	–
CNC1CCN(c2cc(-c3ccc(C#N)cc3)c(-c3ccc(N(C)C)nc3)n(C)c2=O)CC1 [Example 92, 4-{2-[6-(dimethylamino)(3-pyridyl)]-1-methyl-5-[4-(methylamino)piperidyl]-6-oxo-3-hydropyridyl}benzenecarbonitrile]	< 0.1	< 0.1	–
COc1ccc(-c2c(-c3ccc(C#N)c(F)c3)cc(N3CCC(N)CC3)c(=O)n2C)cc1 [Example 67, 4-(5-(4-aminopiperidin-1-yl)-2-(4-methoxyphenyl)-1-methyl-6-oxo-1,6-dihydropyridin-3-yl)-2-fluorobenzonitrile]	< 0.1	< 0.1	–
COc1ccc(-c2c(-c3ccc(C#N)c(F)c3)nc(N3CCC(N)CC3)c(=O)n2CCCC(N)=O)cc1 [Example 90, 4-[3-(4-aminopiperidyl)-5-(4-cyano-3-fluorophenyl)-6-(4-methoxyphenyl)-2-oxohydropyrazinyl]butanamide]	< 0.1	< 0.1	–
Cc1ccc(-c2c(-c3ccc(C#N)cc3)nc(N3CCC4(CCNC4)CC3)c(=O)n2C)cc1 [Example 24, 4-(6-{2,8-diazaspiro[4.5]decan-8-yl}-4-methyl-3-(4-methylphenyl)-5-oxo-4,5-dihydropyrazin-2-yl)benzonitrile]	< 0.1	< 0.1	–
Cn1c(-c2ccc(C3CC3)cc2)c(-c2ccc(C#N)nc2)nc(N2CCC(N)CC2)c1=O [Example 53, 5-[6-(4-amino-piperidin-1-yl)-3-(4-cyclopropyl-phenyl)-4-methyl-5-oxo-4,5-dihydro-pyrazin-2-yl]-pyridine-2-carbonitrile]	< 0.1	< 0.1	–
Cn1c(-c2ccc(C3CC3)cc2)c(-c2ccc(C#N)cc2)nc(NC[C@@H]2CCNC2)c1=O [Example 35, 4-[3-(4-cyclopropylphenyl)-4-methyl-5-oxo-6-{[(3R)-pyrrolidin-3-ylmethyl]amino}-4,5-dihydropyrazin-2-yl]benzonitrile]	0.1 to 1	< 0.1	–
CCn1c(-c2ccc(C)cc2)c(-c2ccc(C#N)cc2)nc(N2CCC(N)CC2)c1=O [Example 26, 4-[6-(4-aminopiperidin-1-yl)-4-ethyl-3-(4-methylphenyl)-5-oxo-4,5-dihydropyrazin-2-yl]benzonitrile]	< 0.1	< 0.1	–
C[C@H](c1ccccc1)n1cc(-c2ccc(C#N)cc2)nc(N2CCC(N)CC2)c1=O [Example 12, 4-[6-(4-aminopiperidin-1-yl)-5-oxo-4-[(1R)-1-phenylethyl]-4,5-dihydropyrazin-2-yl]benzonitrile]	1 to 10	< 0.1	–
Cn1c(-c2ccc(C3CC3)cc2)c(-c2ccc(C#N)cc2)nc(NC[C@H]2CCNC2)c1=O [Example 34, 4-[3-(4-cyclopropylphenyl)-4-methyl-5-oxo-6-{[(3S)-pyrrolidin-3-ylmethyl]amino}-4,5-dihydropyrazin-2-yl]benzonitrile]	0.1 to 1	< 0.1	–

Second part, led by results:

IC50 (THP-1 (AML) cells) [µM]	IC50 (full-length human LSD1) [µM]	Structure (SMILES)	IC50 (Kasumi-1) [µM]
< 0.1	< 0.1	Cc1ccc(-c2c(-c3ccc(C#N)cc3)nc(N3CCC(N)CC3)c(=O)n2CCCO)cc1 [Example 40, 4-[6-(4-amino-piperidin-1-yl)-4-(3-hydroxy-propyl)-5-oxo-3-p-tolyl-4,5-dihydro-pyrazin-2-yl]-benzonitrile]	≤ 0.1
< 0.1	< 0.1	Cc1ccc(-c2c(-c3ccc(C#N)c(F)c3)nc(N3CCC(N)CC3)c(=O)n2CCO)cc1 [Example 42, 4-[6-(4-amino-piperidin-1-yl)-4-(2-hydroxy-ethyl)-5-oxo-3-p-tolyl-4,5-dihydro-pyrazin-2-yl]-2-fluoro-benzonitrile]	≤ 0.1
< 0.1	< 0.1	Cc1ccc(-c2c(-c3ccc(C#N)c(F)c3)nc(N3CCC(N)CC3)c(=O)n2C)cn1 [Example 66, 4-[6-(4-Amino-piperidin-1-yl)-4-methyl-3-(6-methyl-pyridin-3-yl)-5-oxo-4,5-dihydro-pyrazin-2-yl]-2-fluoro-benzonitrile]	≤ 0.1
< 0.1	< 0.1	COc1ccc(-c2c(-c3ccc(C#N)cc3)cc(N3CCC(N)CC3)c(=O)n2C)cc1F [Example 83, 4-[5-(4-aminopiperidin-1-yl)-2-(3-fluoro-4-methoxyphenyl)-1-methyl-6-oxopyridin-3-yl]benzonitrile]	≤ 0.1
< 0.1	< 0.1	Cc1ccc(-c2c(-c3ccc(C#N)c(F)c3)nc(NC[C@H]3CCNC3)c(=O)n2CCO)cc1 [Example 44, 4-(6-{[((3S)-pyrrolidin-3-yl)methyl]amino}-4-(2-hydroxyethyl)-3-(4-methylphenyl)-5-oxo(4-hydropyrazin-2-yl))-2-fluorobenzenecarbonitrile]	≤ 0.1
< 0.1	< 0.1	Cc1ccc(-c2c(-c3ccc(C#N)c(F)c3)nc(N3CCC(N)CC3)c(=O)n2CCCO)cc1 [Example 46, 4-[6-(4-aminopiperidyl)-4-(3-hydroxypropyl)-3-(4-methylphenyl)-5-oxo(4-hydropyrazin-2-yl)]-2-fluorobenzenecarbonitrile]	≤ 0.1
< 0.1	< 0.1	Cn1c(-c2ccc3c(c2)ncn3C)c(-c2ccc(C#N)c(F)c2)nc(N2CCC(N)CC2)c1=O [Example 60, 4-[6-(4-amino-piperidin-1-yl)-4-methyl-3-(1-methyl-1H-benzoimidazol-5-yl)-5-oxo-4,5-dihydro-pyrazin-2-yl]-2-fluoro-benzonitrile]	≤ 0.1
< 0.1	< 0.1	COc1ccc(-c2c(-c3ccc(C#N)c(F)c3)nc(NC[C@H]3CCNC3)c(=O)n2C)cc1 [Example 55, 2-fluoro-4-{3-(4-methoxy-phenyl)-4-methyl-5-oxo-6-[((3S)-pyrrolidin-3-ylmethyl)-amino]-4,5-dihydro-pyrazin-2-yl}-benzonitrile]	≤ 0.1
< 0.1	< 0.1	Cc1ccc(-c2c(-c3ccc(C#N)c(F)c3)cc(N3CCC(N)CC3)c(=O)n2C)cc1 [Example 76, 4-[5-(4-aminopiperidin-1-yl)-1-methyl-2-(4-methylphenyl)-6-oxopyridin-3-yl]-2-fluorobenzonitrile]	≤ 0.1

From patent US11028066B2, “Inhibitors of lysine specific demethylase-1” (CELGENE QUANTICEL RESEARCH, INC., priority 2014, dated 2021)
